This note sets out measurements from publication PMC12557383, “Development of a Potent and Functional In Vivo Peptide Competitive Inhibitor for the Toxin MazF” (Journal of Medicinal Chemistry, 2025).

B1: MazF_(E24A) (E. coli toxin MazF with glutamic acid 24 replaced with alanine, His6 tag removed) (enzyme)
chain: MVSRYVPDMGDLIWVDFDPTKGSAQAGHRPAVVLSPFMYNNKTGMCLCVPCTTQSKGYPFEVVLSGQERDGVALADQVKSIAWRARGATKKGTVAPEELQLIKAKINVLIG
notes: For NMR the same construct was 15N or 15N/13C labelled; also called the toxin; source: E. coli BL21 (DE3) RIL, purified (Ni-NTA, TEV cleavage, second Ni-NTA, SEC); not shown: His6, N-terminal, cleaved
B2: Small Antitoxin of MazF (SamF), synthetic peptide Ac-SHLFWAQFDEYF-NH2 (peptide)
peptide: Ac-SHLFWAQFDEYF-NH2
notes: also called synthetic SamF; the synthetic peptide; source: synthetic peptide (microwave-assisted solid phase, RP-HPLC purified)
B3: SamF D9K mutant peptide (peptide)
peptide: Ac-SHLFWAQFKEYF-NH2
notes: the substitution is still to be applied; source: synthetic peptide
B4: MazE (E. coli antitoxin) (natural protein, UniProt P0AE72 1-82, looked up)
chain: MIHSSVKRWGNSPAVRIPATLMQALNLNIDDEVKIDLVDGKLIIEPVRKEPVFTLAELVNDITPENLHENIDWGEPKDKEVW
notes: also called full-length MazE; the antitoxin

The target in data set [1] is T1, MazFE24A (Escherichia coli, UniProt P0AE70, E24A).
T1 construct: His6 (N, cleaved yes); made in house; host or cells: E. coli BL21 (DE3) RIL
T1 sequence (P0AE70 1-111 E24A): B1 chain
Nature of the data set: Isothermal titration calorimetry (ITC), binding to MazFE24A. The note with it: peptide into MazFE24A, pH about 7.10, one set of sites model. Here is the method: Experiments were performed in a Malvern VP-ITC microcalorimeter with a reference offset of 15 μcal s^–1, syringe speed of 250 rpm, preinjection delay of 300 s, and a recording interval of 2 s. The thermodynamic parameters of binding were obtained by fitting the experimental thermogram (Origin 7.0 software) to the “one set of sites” model supplied by the equipment after subtracting the heat of dilution. […] Titrations of MazFE24A with SamF were carried out by 20 injections of 15 μL of SamF (225 μM) to a 28 μM MazFE24A solution contained in the calorimetric cell. Samples of MazFE24A and SamF were prepared in the same buffer with a final pH of about 7.10 (30 mM NaHPO4, 4 mM NH4HCO3, 60 mM NaCl, 0.3 mM EDTA, and 2.4 mM DTT).
(In general: In ITC the heat of successive injections is recorded.)

In data set [2] the target is T2, His^6-MazF (Escherichia coli, UniProt P0AE70).
T2 construct: made in house
T2 sequence (P0AE70 1-111): B1 chain with A24E
Nature of the data set: His6-MazF enzyme activity with fluorescence-suppressed chimeric DNA/RNA substrate. The data set is classed as biochemical. Here is the method: Toxin activity was assessed with a chimeric DNA/RNA substrate labeled with a fluorophore on the 5′ end and a quencher on the 3′ end (Tables S1–S13) as described. The reaction was performed in 50 mM Tris, pH 7, containing 1 mM EDTA in a 96-well plate and in a final volume of 100 μL. The buffer was initially equilibrated at 35 °C, and His^6-MazF was added to a final concentration of 0.75 μM. Inhibitors were incubated with His^6-MazF for 20 min/35 °C before the reaction was started with 0.5 μM of substrate. Fluorescence intensity was recorded every half minute for 90 min on a SpectraMax Paradigm spectrometer (Molecular Devices) at 35 °C with an excitation wavelength of 488 nm and detection at 520 nm. The fluorescence values of all reactions were subtracted from that of the negative control containing only buffer and substrate. The highest fluorescence value obtained for the reaction catalyzed by His^6-MazF was set to 1, and the fluorescence values obtained for all other reactions were normalized relative to this.
The mechanism of inhibition of the toxin by SamF was determined by measuring the initial enzyme-catalyzed ACA site hydrolysis rates (v 0) in the absence and presence of increasing concentrations of the inhibitor. The concentration of His^6-MazF was 0.75 μM. V 0 was considered as the slope of the catalytic curve (fluorescence increase per time) at the initial moments of the reaction up to a maximum of 5 min, after the addition of the substrate. The Lineweaver–Burk graph was generated by plotting the reciprocal of v 0 as a function of the reciprocal of the substrate concentration in the presence of different amounts of inhibitor.
The IC50 value for the inhibition of MazF was calculated by measuring the v 0 as described above in the presence of different concentrations of the inhibitor. The concentration of His^6-MazF was 0.75 μM, and that of the substrate was 0.5 μM.

The target of data set [3] is T1, MazFE24A. In words: Competition ligand binding by displacement ITC (MazE vs SamF). The note with it: 50 μM MazE titrated into 10 μM MazFE24A with 0, 10 or 30 μM SamF. An excerpt:
Raw heats were integrated and fitted by a least-squares algorithm to the “one set of sites” model to calculate thermodynamic parameters after subtracting the heat of dilution.

Data set [4] can be described thus: Solubility of the purified peptide. It is filed as physicochemical.
The nature of data set [5]: CD spectroscopy, α-helix content by K2D2 deconvolution. It is filed as physicochemical. As to conditions: 0.25 mg/mL in 10 mM NaHPO4, CD deconvolution with K2D2. Here is the method: CD spectra were recorded in a Jasco 815 spectropolarimeter with a 0.25 mg/mL concentrated sample of SamF in 10 mM NaHPO4 buffer. CD spectra were recorded with 1 nm data pitch, 1 s of integration time, scanning speed of 50 nm/min, and wavelength range from 200 to 260 nm. The final spectrum is the average of eight accumulations. The peptide spectrum was subtracted from that of the buffer and smoothed by the Savitzky-Golay method.

Data set [6] concerns the molecule itself. Nature of the data set: SEC-MALS; Superdex 75 10/300 GL in NMR buffer; 100 μL of 200 μM MazF_(E24A) alone or with an equimolar concentration of SamF. On the technique in general: SEC sorts molecules by how far they enter the pores of the column.
Data set [7] has as its target T3, His^6-MazF (wild-type E. coli toxin MazF) (E. coli, UniProt P0AE70 1-111).
T3 sequence: B1 chain with A24E
In words: cell-based or functional assay.

The target in data set [8] is B1. In words: ITC; SamF (225 μM) in the syringe, 20 injections of 15 μL into 28 μM MazF_(E24A) in the cell; 30 mM NaHPO4, 4 mM NH4HCO3, 60 mM NaCl, 0.3 mM EDTA, 2.4 mM DTT, pH about 7.10; one set of sites model; average of two independent experiments. The note with it: both partners purified.
The target of data set [9] is B1. As to conditions: both partners purified.
Data set [10] deals with T4, MazF_(E24A) (E. coli toxin MazF with glutamic acid 24 replaced with alanine, His6 tag removed) (E. coli, UniProt P0AE70 1-111, E24A). In words: ITC.
Data set [11] concerns the target T4, MazF_(E24A) (E. coli toxin MazF with …). In words: ITC. The source holds these as a separate data set.
The target is the same in data set [12]. In words: ITC; in presence of 10 uM SamF.
The target is the same in data set [13]. Nature of the data set: ITC; in presence of 30 uM SamF.
In data set [14] the target is B1. Nature of the data set: ITC; MazE (50 μM) in the syringe, 20 injections of 8 μL into 10 μM MazF_(E24A) in the cell; 50 mM NaHPO4 pH 7, 100 mM NaCl, 0.5 mM EDTA, 4 mM DTT; one set of sites model. As to conditions: both partners purified.
The mark [15] stands for this setting: SamF: average of two independent experiments.

Changes are numbered by the printed parent chain. In names and notes the source's numbering stands. Several values for one entry are separate records, joined by “and”; a condition that tells them apart may be missing. Equal entries are not always repeated.

For the molecule Ac-SHLFWAQFKEYF-NH2 [SamF_D9K], in [1], the “protein:peptide complex stoichiometry (N)” value worked out at 1.0 ±0.1. Besides, the TΔS in data set [1] (setting [15]) is -2.8 ± 0.9 kcal/mol. The “Inhibition of His6-MazF catalysis (result in words)” value in data set [2] (0.75 μM His6-MazF, 0.5 μM substrate, 50 mM Tris pH 7, 35 °C, 20 min preincubation, fluorescence over 90 min) is “still able to prevent MazF catalysis”.
For Ac-SHLFWAQFDEYF-NH2 [SamF], the TΔS in data set [1] (setting [15]) is -3.9 kcal/mol and -3.9 ± 1.9 kcal/mol. In [1] (setting [15]), the ΔH was -11.8 ± 1.6 kcal/mol. In addition, in data set [2] (0.75 μM His6-MazF, increasing substrate and inhibitor concentrations, Vmax unaffected, KM enhanced), the “Mechanism of inhibition (Lineweaver–Burk)” value was “competitive inhibition”. The “Inhibition of His6-MazF in whole E. coli cell lysate (result in words)” value in [2] (in the presence of about 0.5 μg of E. coli proteins) is listed as “still efficiently able to inhibit”. The “Competition with MazE for binding to MazF (result in words)” value in data set [3] is given as “compete for binding to MazF”. Besides, the “Solubility at neutral pHs (result in words)” value in data set [4] (neutral pH) was “low solubility”. Moreover, the “Solubility at pHs 8–9 (result in words)” value in [4] (pH 8–9) is reported as “highly soluble”. For the same molecule, the α-helix content was 82.6% in data set [5] (pH 7.0, 25 °C); 39.11% in data set [5] (pH 7.6, 25 °C); 23.36% in [5] (pH 8.0, 25 °C).
For B1, in data set [6], the “stoichiometry N” value was 2.
In the case of B2, the “IC50 of inhibition of His6-MazF (0.75 μM) cleavage of a fluorescence-suppressed DNA–RNA chimeric substrate (0.5 μM)” value in data set [7] was 2170 nM. For the same molecule, in data set [8], the Kd was determined as 2500 ± 700 nM, the dH was -11.8 kcal/mol and the “stoichiometry N” value was 1.
In the case of B3, the “fold change of KD against SamF” value in data set [9] was 2 fold. The molecule further gave a dissociation constant Kd in data set [10] of 6600 nM.
For the molecule B4, the values for the Kd in data set [11], in data set [12] and in data set [13] were 5 nM, 6 nM and 2 nM, respectively. For the same molecule, the dH in [14] is -25.6 ± 1.7 kcal/mol. Also, the “stoichiometry N” value in data set [14] was 0.5.

A word on the stoichiometry N: it is the number of molecules, sites or subunits per partner or assembly. A word on the Kd: it is a measure of binding affinity in units of concentration.
